Experimental data reported in patent US11571453B2, “Piper laetispicum extract and preparation method therefor and use thereof” (SUZHOU YI-HUA BIOMEDICAL TECHNOLOGY CO., LTD, priority 2017, dated 2023).

Assays:
Assay type in all cases: in vivo
[1] = test system: mice; assay: Light and dark box test in mice; details: 2.0 mg/kg oral, 60 min after dose, 5 min test; n = 10, x ± SD
Method: The positive control drug was diazepam. 60 minutes after oral administration, the light and dark box test was implemented. Each mouse is tested for 5 minutes, and each residence time in the light box and the number of shuttles between the light and dark boxes are recorded.

[2] = test system: Kunming mice; assay: Mouse tail hanging test; details: 50 mg/kg/d oral, 14 days, 1 h after last dose; n=10, x ± SD
Method: Kunming mice (male, 18-20 g) were randomly divided into 14 groups, each with 10 rats. […] The positive control group was venlafaxine. Continuous administered for 14 days, one time per day. One hour after the last oral administration, the mouse tail hanging test was carried out. The tails of the mice were glued on a wooden bar 50 cm above the table top to make them stand upside down, and the mouse sight was isolated using plates around. The mice would struggle to overcome the abnormal posture, but appear immobile after a period of activity, showing state of despair Duration was 6 minutes, the time of immobility within 6 minutes was recorded.

[3] = test system: Kunming mice; assay: Mouse swimming test; details: 50 mg/kg/d oral, 14 days, 1 h after last dose; n=10, x ± SD
Method: Kunming mice (male, 18-20 g) were randomly divided into 12 groups, each with 10 rats. Each group was given the corresponding dose of extract as shown in Table 4 and normal saline was used as control. The positive control group was venlafaxine. Continuous administered for 14 days, one time per day. One hour after the last oral administration, the mice were placed into a glass tank of 10×20 cm and water depth of 10 cm (water temperature 25° C.) for a swimming test. The swimming duration was 6 minutes, the time to stop motion within 5 minutes was recorded.

[4] = test system: Wistar rats; assay: Rat learned helplessness test (conditional avoidance)
Method: Wistar rats were selected and randomly grouped into 10 rats in each group. The learned helplessness test model was used in which the corresponding dose of extracts shown as in Table 5 were administered orally by gavage. The positive control was venlafaxine. Continuous administered for 7 days, one time per day. 24 h after the last oral administration, a conditional avoidance test is implemented.

CN1C(=O)CN=C(c2ccccc2)c2cc(Cl)ccc21 [Diazepam, diazepam]
Number of shuttles [1]: 14.23 ± 1.06
Time (residence time in the light box) [1]: 121.23 ± 8.12

COc1ccc(C(CN(C)C)C2(O)CCCCC2)cc1 (stereo not drawn) [Venlafaxine, venlafaxine]
Immobility time within 6 min [2]: 60.9 ± 38.5 s
Stop motion within 5 min [3]: 75.8 ± 19.4 s
Escape latency ([4]; 30 mg/kg/d oral gavage, 7 days, 24 h after last dose, u test n = 10, x ± SD): 14.15 ± 12.32 s
escape latency of the rats, effect in words ([4]; doses of 10, 5, 2.5 mg/kg/d, compared with the model control group P<0.01): significantly shortened the escape latency
